The source of these data is patent US10793564B2, “Amino acid compounds and methods of use” (Pliant Therapeutics, Inc., priority 2018, dated 2020).

Chain of recombinant human integrin αVβ6 (P06756 31-992): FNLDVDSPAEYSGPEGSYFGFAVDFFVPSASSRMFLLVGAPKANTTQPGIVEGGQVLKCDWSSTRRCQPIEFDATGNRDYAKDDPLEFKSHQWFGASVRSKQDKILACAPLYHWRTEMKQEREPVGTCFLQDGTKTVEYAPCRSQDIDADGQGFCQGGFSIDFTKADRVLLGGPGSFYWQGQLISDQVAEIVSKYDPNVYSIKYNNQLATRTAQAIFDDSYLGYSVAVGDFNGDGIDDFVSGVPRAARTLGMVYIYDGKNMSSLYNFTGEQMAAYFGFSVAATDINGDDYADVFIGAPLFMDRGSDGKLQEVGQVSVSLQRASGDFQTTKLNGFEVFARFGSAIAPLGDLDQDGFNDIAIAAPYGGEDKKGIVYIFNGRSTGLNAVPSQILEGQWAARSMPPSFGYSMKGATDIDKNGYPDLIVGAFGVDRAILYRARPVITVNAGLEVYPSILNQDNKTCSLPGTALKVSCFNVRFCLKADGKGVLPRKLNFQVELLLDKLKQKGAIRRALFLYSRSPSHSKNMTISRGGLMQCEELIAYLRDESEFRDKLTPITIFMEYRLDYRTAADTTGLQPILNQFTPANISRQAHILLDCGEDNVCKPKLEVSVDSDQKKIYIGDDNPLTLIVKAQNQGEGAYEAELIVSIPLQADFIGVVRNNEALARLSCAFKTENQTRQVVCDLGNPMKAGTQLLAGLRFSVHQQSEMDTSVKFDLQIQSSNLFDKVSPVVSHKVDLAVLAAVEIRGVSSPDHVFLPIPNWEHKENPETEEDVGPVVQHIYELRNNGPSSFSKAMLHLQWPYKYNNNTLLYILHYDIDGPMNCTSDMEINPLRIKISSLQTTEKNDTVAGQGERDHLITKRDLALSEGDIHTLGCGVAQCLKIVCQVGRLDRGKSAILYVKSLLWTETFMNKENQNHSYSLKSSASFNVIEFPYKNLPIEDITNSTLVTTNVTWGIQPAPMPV
Chain of recombinant human integrin αVβ6 (P18564 22-707): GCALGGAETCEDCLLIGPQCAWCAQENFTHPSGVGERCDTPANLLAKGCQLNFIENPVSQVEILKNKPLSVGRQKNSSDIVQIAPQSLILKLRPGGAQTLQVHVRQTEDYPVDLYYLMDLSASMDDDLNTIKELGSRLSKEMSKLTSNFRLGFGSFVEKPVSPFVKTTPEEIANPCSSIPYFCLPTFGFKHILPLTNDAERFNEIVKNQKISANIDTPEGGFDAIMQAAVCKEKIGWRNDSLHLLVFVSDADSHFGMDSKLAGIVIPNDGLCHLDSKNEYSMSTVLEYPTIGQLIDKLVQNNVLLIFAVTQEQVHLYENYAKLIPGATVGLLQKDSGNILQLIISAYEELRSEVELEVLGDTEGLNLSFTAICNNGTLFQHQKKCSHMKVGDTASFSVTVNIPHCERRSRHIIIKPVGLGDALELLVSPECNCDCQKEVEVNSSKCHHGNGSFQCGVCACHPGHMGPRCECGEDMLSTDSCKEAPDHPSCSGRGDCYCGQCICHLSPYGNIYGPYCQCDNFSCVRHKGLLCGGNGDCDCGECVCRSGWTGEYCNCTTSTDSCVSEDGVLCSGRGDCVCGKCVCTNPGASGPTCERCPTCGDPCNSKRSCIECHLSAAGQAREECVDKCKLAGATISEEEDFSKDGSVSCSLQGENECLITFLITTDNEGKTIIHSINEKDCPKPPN

The assay deals with recombinant human integrin αVβ6 (Homo sapiens (Human), UniProt P06756+P18564). In words: Solid phase integrin αVβ6 binding assay. The note with it: inhibition of recombinant TGFβ1 LAP binding to coated integrin, IC50 presented in four ranges, read-out: αvβ6 Inhibition IC50 (nM) - range. The procedure:
(§1) Microplates were coated with recombinant human integrin αVβ6 (2 μg/mL) in PBS (100 μL/well 25° C., overnight). The coating solution was removed, washed with wash buffer (0.05% Tween 20; 0.5 mM MnCl2; in 1×TBS). The plate was blocked with 200 μL/well of Block Buffer (1% BSA; 5% sucrose; 0.5 mM MnCl2; in 1×TBS) at 37° C. for 2 h. Dilutions of testing compounds and recombinant TGFβ1 LAP (0.67 μg/mL) in binding buffer (0.05% BSA; 2.5% sucrose; 0.5 mM MnCl2; in 1×TBS) were added. The plate was incubated for 2 hours at 25° C., washed, and incubated for 1 hour with Biotin-Anti-hLAP. Bound antibody was detected by peroxidase-conjugated streptavidin. The IC50 values for testing compounds were calculated by a four-parameter logistic regression.
The compounds tested were compound samples prepared according to procedures described in the Synthetic Examples section, with the stereochemical purity as indicated in the Examples.
as §1, with “A third series of exemplary compounds was selected for testing in the solid phase integrin αVβ6 binding assay. The compounds tested were compound samples prepared according to procedures described in the Synthetic Examples section, with the stereochemical purity as indicated in the Examples. As in Example B1, microplates were” for “Microplates were”, “(0.67 g/mL)” for “(0.67 μg/mL)”
The term IC50 denotes the concentration at which inhibition is half-maximal. As for `Cn1ncc2c(N[C@@H](CCN(CCCF)CCCCc3ccc4c(n3)NCCC4)C(=O)O)ncnc21` [Compound 136, (S)-4-((3-fluoropropyl) (4-(5,6,7,8-tetrahydro-1,8-naphthyridin-2-yl)butyl)amino)-2-((1-methyl-1H-pyrazolo[3,4-d]pyrimidin-4-yl)amino) butanoic Acid], the half-maximal inhibitory concentration (IC50) was < 50 nM.

`COc1cccc2c(N[C@@H](CCN(CCCF)CCCCc3ccc4c(n3)NCCC4)C(=O)O)ncnc12` [Compound 43, (S)-4-((3-fluoropropyl) (4-(5,6,7,8-tetrahydro-1,8-naphthyridin-2-yl)butyl)amino)-2-((8-methoxyquinazolin-4-yl)amino) butanoic Acid]: the half-inhibitory concentration (IC50) was < 50 nM.

For the compound `COCCN(CCCCc1ccc2c(n1)NCCC2)CC[C@H](Nc1ncnc2c(C(F)(F)F)cccc12)C(=O)O` [Compound 15, (S)-4-((2-methoxyethyl) (4-(5,6,7,8-tetrahydro-1,8-naphthyridin-2-yl)butyl)amino)-2-((8-(trifluoromethyl)quinazolin-4-yl)amino) butanoic Acid], the half-inhibitory concentration (IC50) is < 50 nM.

Consider `O=C(O)[C@H](CCN(CCCCc1ccc2c(n1)NCCC2)C1CC1)Nc1ncnc2ccccc12` [Compound 6, (S)-4-(cyclopropyl(4-(5,6,7,8-tetrahydro-1,8-naphthyridin-2-yl)butyl)amino)-2-(quinazolin-4-ylamino) butanoic Acid], for which the 50% inhibitory concentration (IC50) lay within 50 to 250 nM.

With `CO[C@H](C)CN(CCCCc1ccc2c(n1)NCCC2)CC[C@H](Nc1ncc(C(F)(F)F)cn1)C(=O)O` [Compound 69, (S)-4-(((R)-2-methoxypropyl) (4-(5,6,7,8-tetrahydro-1,8-naphthyridin-2-yl)butyl)amino)-2-((5-(trifluoromethyl)pyrimidin-2-yl)amino) butanoic Acid], the IC50 was < 50 nM.

With `O=C(O)[C@H](CCN(CCCCc1ccc2c(n1)NCCC2)C1CC(F)(F)C1)Nc1ncnc2ccccc12` [Compound 9, (S)-4-((3,3-difluorocyclobutyl) (4-(5,6,7,8-tetrahydro-1,8-naphthyridin-2-yl)butyl)amino)-2-(quinazolin-4-ylamino) butanoic Acid], the IC50 is > 1000 nM.

`Cc1ccc(OCCN(CCCCc2ccc3c(n2)NCCC3)CC[C@H](Nc2ncnc3ccccc23)C(=O)O)cn1` [Compound 59, (S)-4-((2-((6-methylpyridin-3-yl)oxy)ethyl) (4-(5,6,7,8-tetrahydro-1,8-naphthyridin-2-yl)butyl)amino)-2-(quinazolin-4-ylamino) butanoic Acid]: the half-maximal inhibitory concentration (IC50) was < 50 nM.

On to `O=C(O)[C@H](CCN(CCCCc1ccc2c(n1)NCCC2)CCOc1ccccc1)Nc1cc(-n2cccn2)ncn1` [Compound 91, (S)-2-((6-(1H-pyrazol-1-yl)pyrimidin-4-yl)amino)-4-((2-phenoxyethyl) (4-(5,6,7,8-tetrahydro-1,8-naphthyridin-2-yl)butyl)amino) butanoic Acid], for which the half-inhibitory concentration (IC50) is < 50 nM.

Regarding `O=C(O)[C@H](CCN(CCCCc1ccc2c(n1)NCCC2)CCOCC(F)(F)F)Nc1ncnc2cccnc12` [Compound 51, (S)-2-(pyrido[3,2-d]pyrimidin-4-ylamino)-4-((4-(5,6,7,8-tetrahydro-1,8-naphthyridin-2-yl)butyl) (2-(2,2,2-trifluoroethoxy)ethyl)amino) butanoic Acid], the half-maximal inhibitory concentration (IC50) is < 50 nM.

For `CN(C)C(=O)CN(CCCCc1ccc2c(n1)NCCC2)CC[C@H](Nc1ncc(C(F)(F)F)cn1)C(=O)O` [Compound 141, (S)-4-((2-(dimethylamino)-2-oxoethyl) (4-(5,6,7,8-tetrahydro-1,8-naphthyridin-2-yl)butyl)amino)-2-((5-(trifluoromethyl)pyrimidin-2-yl)amino) butanoic Acid], the IC50 is 50 to 250 nM.

Take `O=C(O)[C@H](CCN(CCCCc1ccc2c(n1)NCCC2)C1CC1)Nc1ccnc(C(F)(F)F)n1` [Compound 115, (S)-4-(cyclopropyl(4-(5,6,7,8-tetrahydro-1,8-naphthyridin-2-yl)butyl)amino)-2-((2-(trifluoromethyl)pyrimidin-4-yl)amino) butanoic Acid]: the IC50 lay within 50 to 250 nM.

For the compound `COCCN(CCCCc1ccc2c(n1)NCCC2)CC[C@H](Nc1nc(C(F)(F)F)nc2ccccc12)C(=O)O` [Compound 14, (S)-4-((2-methoxyethyl) (4-(5,6,7,8-tetrahydro-1,8-naphthyridin-2-yl)butyl)amino)-2-((2-(trifluoromethyl)quinazolin-4-yl)amino) butanoic Acid], the half-maximal inhibitory concentration (IC50) was < 50 nM.

Take `N#Cc1cnc(N[C@@H](CCN(CCCCc2ccc3c(n2)NCCC3)CCOc2ccccc2)C(=O)O)nc1` [Compound 111, (S)-2-((5-cyanopyrimidin-2-yl)amino)-4-((2-phenoxyethyl) (4-(5,6,7,8-tetrahydro-1,8-naphthyridin-2-yl)butyl)amino) butanoic Acid]: the 50% inhibitory concentration (IC50) was < 50 nM.

Take `O=C(O)[C@H](CCN(CCCCc1ccc2c(n1)NCCC2)CCOc1ccccc1)Nc1nc(-c2cccnc2)nc2ccccc12` [Compound 94, (S)-4-((2-phenoxyethyl) (4-(5,6,7,8-tetrahydro-1,8-naphthyridin-2-yl)butyl)amino)-2-((2-(pyridin-3-yl)quinazolin-4-yl)amino) butanoic Acid]: the 50% inhibitory concentration (IC50) was < 50 nM.

For the compound `COCCN(CCCCc1ccc2c(n1)NCCC2)CC[C@H](Nc1ccnc(C(F)(F)F)n1)C(=O)O` [Compound 24, (S)-4-((2-methoxyethyl) (4-(5,6,7,8-tetrahydro-1,8-naphthyridin-2-yl)butyl)amino)-2-((2-(trifluoromethyl)pyrimidin-4-yl)amino) butanoic Acid], the IC50 was < 50 nM.

Consider `O=C(O)[C@H](CCN(CCCCc1ccc2c(n1)NCCC2)C1CC1)Nc1ncnc2[nH]ncc12` [Compound 116, (S)-2-((1H-pyrazolo[3,4-d]pyrimidin-4-yl)amino)-4-(cyclopropyl(4-(5,6,7,8-tetrahydro-1,8-naphthyridin-2-yl)butyl)amino) butanoic Acid], for which the IC50 lay in the range of 50 to 250 nM.

Regarding `Cc1ccc(OCCN(CCCCc2ccc3c(n2)NCCC3)CC[C@H](Nc2ncnc3cccnc23)C(=O)O)cn1` [Compound 57, (S)-4-((2-((6-methylpyridin-3-yl)oxy)ethyl) (4-(5,6,7,8-tetrahydro-1,8-naphthyridin-2-yl)butyl)amino)-2-(pyrido[3,2-d]pyrimidin-4-ylamino) butanoic Acid], the IC50 is < 50 nM.

For `O=C(O)[C@H](CCN(CCCCc1ccc2c(n1)NCCC2)CCOc1cc(F)cc(F)c1)Nc1ncnc2ccccc12` [Compound 47, (S)-4-((2-(3,5-difluorophenoxy)ethyl) (4-(5,6,7,8-tetrahydro-1,8-naphthyridin-2-yl)butyl)amino)-2-(quinazolin-4-ylamino) butanoic Acid], the 50% inhibitory concentration (IC50) was < 50 nM.

As to `O=C(O)[C@H](CCN(CCCCc1ccc2c(n1)NCCC2)CC(CO)CO)Nc1ncnc2ccccc12` [Compound 130, (S)-4-((3-hydroxy-2-(hydroxymethyl)propyl) (4-(5,6,7,8-tetrahydro-1,8-naphthyridin-2-yl)butyl)amino)-2-(quinazolin-4-ylamino) butanoic Acid], the half-inhibitory concentration (IC50) was < 50 nM.

For `O=C(O)[C@H](CCN(CCCCc1ccc2c(n1)NCCC2)CCOCC(F)F)Nc1ncnc2ccccc12` [Compound 50, (S)-4-((2-(2,2-difluoroethoxy)ethyl) (4-(5,6,7,8-tetrahydro-1,8-naphthyridin-2-yl)butyl)amino)-2-(quinazolin-4-ylamino) butanoic Acid], the IC50 is < 50 nM.

For the compound `CO[C@H](C)CN(CCCCc1ccc2c(n1)NCCC2)CC[C@H](Nc1ncnc2[nH]ncc12)C(=O)O` [Compound 71, (S)-2-((1H-pyrazolo[3,4-d]pyrimidin-4-yl)amino)-4-(((R)-2-methoxypropyl) (4-(5,6,7,8-tetrahydro-1,8-naphthyridin-2-yl)butyl)amino) butanoic Acid], the IC50 was < 50 nM.

Take `COCCN(CCCCc1ccc2c(n1)NCCC2)CC[C@H](Nc1ncnc2ncccc12)C(=O)O` [Compound 11, (S)-4-((2-methoxyethyl) (4-(5,6,7,8-tetrahydro-1,8-naphthyridin-2-yl)butyl)amino)-2-(pyrido[2,3-d]pyrimidin-4-ylamino) butanoic Acid]: the 50% inhibitory concentration (IC50) is < 50 nM.

For the compound `COCCN(CCCCc1ccc2c(n1)NCCC2)CC[C@H](Nc1ncnc2cc(F)ccc12)C(=O)O` [Compound 7, (S)-2-((7-fluoroquinazolin-4-yl)amino)-4-((2-methoxyethyl) (4-(5,6,7,8-tetrahydro-1,8-naphthyridin-2-yl)butyl)amino) butanoic Acid], the half-maximal inhibitory concentration (IC50) is < 50 nM.
